Test results from ChEMBL document CHEMBL5303304, “EUbOPEN Chemogenomics Library - IncuCyte” (2023).

Key:
Assay type in all cases: toxicity, cell-based
[1] = tested on: HEK-293T; experiment: Incucyte cell viability with HEK293T; conditions: human, 10 µM, compound concentration 10 uM
[2] = tested on: Fibroblast; experiment: Incucyte cell viability with human fibroblast; conditions: 10 µM, compound concentration 10 uM
[3] = tested on: U2OS; experiment: Incucyte cell viability with U2OS; conditions: human, 10 µM, compound concentration 10 uM
Further: unitless GR value; below 1 slowed growth and below 0 cell loss.

Structure (SMILES) | Growth Rate ([1]; 0 h, replicate number 1) | Growth Rate ([1]; 0 h, replicate number 2) | Growth Rate ([1]; 12 h, replicate number 1) | Growth Rate ([1]; 12 h, replicate number 2) | Growth Rate ([1]; 18 h, replicate number 2) | Growth Rate ([1]; 24 h, replicate number 1) | Growth Rate ([1]; 24 h, replicate number 2) | Growth Rate ([2]; 12 h, replicate number 2) | Growth Rate ([3]; 12 h, replicate number 1) | Growth Rate ([3]; 12 h, replicate number 2) | Growth Rate ([3]; 18 h, replicate number 2) | Growth Rate ([3]; 24 h, replicate number 1) | Growth Rate ([3]; 24 h, replicate number 2) | Growth Rate ([1]; 6 h, replicate number 2) | Growth Rate ([2]; 0 h, replicate number 2) | Growth Rate ([3]; 0 h, replicate number 1) | Growth Rate ([2]; 6 h, replicate number 2) | Growth Rate ([3]; 6 h, replicate number 1) | Growth Rate ([3]; 18 h, replicate number 1) | Growth Rate ([3]; 6 h, replicate number 2) | also measured
Cc1[nH]nc(C(F)(F)F)c1Cc1sc2c(c1C(=O)N1C[C@](C)(O)CO1)c(=O)n(C)c(=O)n2C(C)C [AZD3965] | -0.63 | -0.81 | 0.53 | 0.43 | 0.22 | 0.11 | 0.21 | 0.69 | 0.92 | 0.71 | 0.69 | 0.75 | 0.83 | – | – | – | – | – | – | – | Growth Rate ([1]; 18 h, replicate number 1): 0.17; Growth Rate ([2]; 6 h, replicate number 1): 0.95; Growth Rate ([2]; 18 h, replicate number 2): 0.97; Growth Rate ([2]; 24 h, replicate number 1): 0.9; Growth Rate ([2]; 24 h, replicate number 2): 0.8
Cc1cc2ncnn2cc1Nc1ncc2c(n1)n(C1CCOCC1)c(=O)n2C [AZD-7648] | – | – | 0.78 | 0.76 | 0.95 | 0.93 | – | – | – | – | – | 0.9 | – | 0.98 | 0.27 | 0.4 | – | – | – | – | Growth Rate ([1]; 6 h, replicate number 1): 0.34; Growth Rate ([1]; 18 h, replicate number 1): 0.87; Growth Rate ([2]; 18 h, replicate number 2): 0.83; Growth Rate ([2]; 24 h, replicate number 2): 0.93
C[C@@H]1Cc2c([nH]c3ccccc23)[C@@H](c2c(F)cc(/C=C/C(=O)O)cc2F)N1CC(C)(C)F [AZD-9496] | -0.59 | -0.31 | – | – | – | – | – | 0.62 | 0.94 | – | – | 0.91 | – | – | – | 0.01 | -0.38 | 0.39 | 0.92 | – | Growth Rate ([2]; 18 h, replicate number 2): 0.88; Growth Rate ([2]; 24 h, replicate number 2): 0.65
Cc1onc(-c2ccc(F)cc2)c1COc1ccc(C(=O)N2CCS(=O)(=O)CC2)cn1 [BASMISANIL] | – | – | – | 0.86 | 0.92 | 0.97 | 0.94 | 0.69 | 0.73 | 0.8 | 0.98 | 0.86 | 0.82 | 0.2 | -0.96 | – | -0.92 | 0.73 | 0.87 | 0.62 | Growth Rate ([2]; 12 h, replicate number 1): -1; Growth Rate ([2]; 18 h, replicate number 1): -0.07
C[C@@H]1OCC2(CCN(c3cnc(Sc4ccnc(N)c4Cl)c(N)n3)CC2)[C@@H]1N [BATOPROTAFIB] | 0.52 | -0.24 | – | – | – | – | – | 0.8 | 0.53 | 0.78 | 0.91 | 0.69 | 0.99 | – | 0.47 | 0.89 | -0.69 | 0.3 | 0.78 | 0.99 | Growth Rate ([2]; 0 h, replicate number 1): -1
COc1cc2c(cc1CC=C(C)C)C(=O)C[C@@H](c1ccc(O)cc1)O2 [BAVACHININ A] | -0.07 | -0.67 | – | 0.94 | 0.89 | – | 0.92 | – | 0.89 | – | – | 0.73 | 0.99 | 0.97 | -0.08 | -0.43 | 0.81 | – | 0.89 | 0.85 | Growth Rate ([2]; 24 h, replicate number 1): 0.99
Cc1ccccc1Oc1cc(-n2c(=O)cc(C(F)(F)F)[nH]c2=O)c2ccccc2c1Cl [BAY-069] | 0.78 | -0.96 | 0.74 | 0.38 | 0.39 | 0.64 | 0.45 | – | -0.7 | 0.77 | 0.86 | 0.81 | 0.86 | 0.24 | 0.05 | -0.77 | – | 0.02 | 0.63 | 0.72 | Growth Rate ([1]; 6 h, replicate number 1): 0.59; Growth Rate ([1]; 18 h, replicate number 1): 0.72; Growth Rate ([2]; 0 h, replicate number 1): 0.91; Growth Rate ([2]; 6 h, replicate number 1): 0.84; Growth Rate ([2]; 12 h, replicate number 1): 0.51; Growth Rate ([2]; 18 h, replicate number 1): 0.76; Growth Rate ([2]; 24 h, replicate number 1): 0.75; Growth Rate ([3]; 0 h, replicate number 2): 0.42
